This is an account of results in US20150087037A1, “FERMENTATION PROCESS” (LanzaTech New Zealand Limited, priority 2013, published 2015).

The subject of experiment [1] is Ketol-acid reductoisomerase IlvC. The settings on record: reference in the literature; cited from earlier work.
Experiment [2] concerns C. autoethanogenum DSM23693. As to the kind of experiment: Addition of other known inhibitor to a fermentation optimized for 2,3-Butanediol production. Type of experiment: cell-based, Clostridium autoethanogenum. Conditions: single addition, 15 mM, stable reactor, day 13.2, FIG. 13. How it is done:
Fermentations with C. autoethanogenum DSM23693 were carried out in 1.5 L bioreactors at 37° C. The media was prepared according to Table 1. To achieve anaerobicity the reactor vessel was sparged with nitrogen. Prior to inoculation, the gas was switched to either steel mill gas containing H2 (3%), N2 (30%), CO (47%) and CO2 (20%) or pure gases (50% CO, 18-40% CO2, with the balance N2). The gas flow was initially set at 67 ml/min/L, increasing to 200 ml/min during mid-exponential phase, while the agitation was increased from 200 rpm to 800. Na2S was dosed into the bioreactor at 0.25 ml/hr. Once the OD600 reached 1.5, the bioreactor was switched to a continuous mode at a dilution rate of 2.0-1.6 d-l and a bacterial dilution rate of 0.9-0.6 d-l. During continuous mode gas and agitation were adjusted to 900-950 rpm and 800-900 ml/min. Na2S was increased to 1.0 ml/hr.
Liquid culture samples were taken at differing intervals over the duration of the fermentation. These samples were used to establish the optical density at 600 nm (spectrophotometer) and the level of substrates and products (high performance liquid chromatography—HPLC). HPLC was routinely used to quantify the level of acetate, ethanol and 2,3-butanediol. The input and output gas compositions were analysed using a gas chromatographer (GC), allowing measurement of CO and H2 consumption and CO2 production by the culture. […]

Molecules are shown by their SMILES.

`CCC(C)(O)C(=O)O` (stereo not drawn) [2-hydroxy-2-methylbutyric acid]: the “inhibition of ilvC” value in experiment [1] is “known inhibitor”. In experiment [2], the “ethanol:2,3-BDO ratio” value was “drop” and the “production of 2,3-Butanediol” value is recorded as “increase”.
